Laboratory results taken from patent publication US20220265817A1, “THERAPEUTIC COMPOSITIONS AND METHODS FOR TREATING HEPATITIS B” (priority 2017, published 2022).

Key:
hepatitis B virus (HBV) [1] = assay: Humanized liver chimeric mouse model of chronic HBV infection, serum HBV DNA by quantitative PCR; assay type: in vivo; conditions: mean
Procedure: This work was conducted in a well-established humanized liver chimeric mouse model of chronic hepatitis B virus (HBV) infection (Tsuge et al., Hepatology, 42(5), 1046-54 (2005)). A persistent level of HBV infection was established in the animals prior to the treatment phase which started at Day 0.
The anti-HBV effects were assessed based on serum HBsAg levels using the GS HBsAg EIA 3.0 enzyme linked immunosorbent assay kit from Bio-Rad Laboratories as per manufacturer instructions; and serum HBV DNA levels measured from total extracted DNA using a quantitative PCR assay (primer/probe sequences from Tanaka et al., Journal of Medical Virology, 72, 223-229 (2004)).

hepatitis B virus (HBV) [2] = assay: Mouse model of HBV (pHBV1.3 hydrodynamic injection), serum HBV DNA quantitative PCR; assay type: in vivo, NOD.CB17-Prkdc^scid/J mice
Procedure: On Day −7, 10 micrograms of the plasmid pHBV1.3 (as per Guidotti, L., et al., Journal of Virology, 1995, 69(10): 6158-6169) was administered to NOD.CB17-Prkdc^scid/J mice via hydrodynamic injection (HDI; rapid 1.6 mL injection into the tail vein). […] As a readout of the anti-HBV effect of various treatments, serum HBV DNA concentration in mice was measured from total extracted DNA using a quantitative PCR assay (primer/probe sequences from Tanaka, Y., et al., Journal of Medical Virology, 2004, 72: 223-229).
Animals were treated with Compound 3 as follows: Starting on Day 0, a 50 mg/kg or 100 mg/kg dosage of Compound 3 was administered orally to animals on a twice-daily frequency for a total of fourteen doses between Days 0 and 7. Compound 3 was dissolved in a co-solvent formulation for administration. Negative control animals were administered either the co-solvent formulation alone, or saline. Animals were treated with lipid nanoparticle (LNP)-encapsulated HBV-targeting siRNAs as follows: On Day 0, an amount of test article equivalent to 0.1 mg/kg siRNA was administered intravenously.
The effect of these treatments was determined by collecting blood on Days 0 (pre-treatment), 4 & 7 and analyzing it for serum HBV DNA content.
Animals were treated with Compound 3 as follows: Starting on Day 0, a 100 mg/kg dosage of Compound 3 was administered orally to animals on a twice-daily frequency for a total of fourteen doses between Days 0 and 7. Compound 3 was dissolved in a co-solvent formulation for administration. Negative control animals were administered either the co-solvent formulation alone, or saline. Animals were treated with ETV as follows: Starting on Day 0, either a 100 ng/kg or a 300 ng/kg dosage of ETV was administered orally to animals on a once-daily frequency for a total of seven doses between Days 0 and 6. ETV was dissolved in DMSO to 2 mg/mL and then diluted in saline for administration.
The effect of these treatments was determined by collecting blood on Days 0 (pre-treatment), 4 & 7 and analyzing it for serum HBV DNA content. Samples with Ct values below the lower limit of quantitation (LLOQ) were set to one-half LLOQ for calculation of group means.

[3] = Day 0 (start of treatment), SEM in the line below
[4] = Day 7, Compound 3 oral 100 mg/kg twice daily, SIRNA-NP iv 3 mg/kg every 2 weeks, ETV oral 1.2 μg/kg daily, pegIFN α-2a sc 30 μg/kg twice a week

SMILES	Serum HBV DNA (hepatitis B virus (HBV) [1]; [3])	Serum HBV DNA (hepatitis B virus (HBV) [1]; [4])	Serum HBV DNA (hepatitis B virus (HBV) [1]; Day 14, same dosages)	Serum HBV DNA (hepatitis B virus (HBV) [1]; Day 21, same dosages)	Serum HBV DNA (hepatitis B virus (HBV) [1]; Day 28, same dosages)	Serum HBV DNA, % of individual pre-treatment baseline (Day 0) (hepatitis B virus (HBV) [2]; Example 2, Day 4, Compound 3 50 mg/kg oral twice daily, mean ± SEM)	Serum HBV DNA, % of individual pre-treatment baseline (Day 0) (hepatitis B virus (HBV) [2]; Example 2, Day 4, Compound 3 100 mg/kg oral twice daily)	Serum HBV DNA, % of individual pre-treatment baseline (Day 0) (hepatitis B virus (HBV) [2]; Example 2, Day 7, Compound 3 50 mg/kg oral twice daily)	Serum HBV DNA, % of individual pre-treatment baseline (Day 0) (hepatitis B virus (HBV) [2]; Example 2, Day 7, Compound 3 100 mg/kg oral twice daily)	Serum HBV DNA, % of individual pre-treatment baseline (Day 0) (hepatitis B virus (HBV) [2]; Example 3, Day 4, Compound 3 100 mg/kg oral twice daily, mean ± SEM)	Serum HBV DNA, % of individual pre-treatment baseline (Day 0) (hepatitis B virus (HBV) [2]; Example 3, Day 7, Compound 3 100 mg/kg oral twice daily)	Serum HBV DNA, % of individual pre-treatment baseline (Day 0) (hepatitis B virus (HBV) [2]; Example 3, Day 4, ETV 100 ng/kg oral once daily)	Serum HBV DNA, % of individual pre-treatment baseline (Day 0) (hepatitis B virus (HBV) [2]; Example 3, Day 4, ETV 300 ng/kg oral once daily)	Serum HBV DNA, % of individual pre-treatment baseline (Day 0) (hepatitis B virus (HBV) [2]; Example 3, Day 7, ETV 100 ng/kg oral once daily)	Serum HBV DNA, % of individual pre-treatment baseline (Day 0) (hepatitis B virus (HBV) [2]; Example 3, Day 7, ETV 300 ng/kg oral once daily)
CC[C@@H](C)NS(=O)(=O)c1ccc(F)c(C(=O)Nc2ccc(F)c(F)c2)c1 [Compound 3]	1.70E+08 Copies/mL	1.33E+07 Copies/mL	1.28E+07 Copies/mL	1.02E+07 Copies/mL	1.17E+07 Copies/mL	13 ± 4%	8.6 ± 1.5%	33 ± 9%	12 ± 5%	9.3 ± 2.5%	1.2 ± 0.3%	–	–	–	–
C=C1[C@H](CO)[C@@H](O)C[C@@H]1n1cnc2c(=O)[nH]c(N)nc21 [Entecavir]	1.48E+08 Copies/mL	2.35E+07 Copies/mL	1.38E+07 Copies/mL	1.35E+07 Copies/mL	9.33E+06 Copies/mL	–	–	–	–	–	–	21 ± 5%	1.6 ± 0.3%	3.5 ± 0.7%	0.88 ± 0.31%
